Legend:
Assay type in all cases: cell-based, human
[1] = system: APOBEC3A-mediated RNA editing; assay: SDHB c.136C>U site-specific RNA editing assay (RT-PCR) in monocyte-enriched PBMCs; conditions: for effect on hypoxia-induced RNA editing: hypoxia 1% O2; for effect on hypoxia-induced RNA editing / induction of APOBEC3A-mediated RNA editing in normoxia: atpenin A5 1-3 μM, DMOG 1 mM, myxothiazol 1 μM; for induction of APOBEC3A-mediated RNA editing in normoxia: TTFA 1 mM
Protocol: Peripheral blood mononuclear cells of anonymous platelet donors were isolated from peripheral blood in Trima Accel™ leukoreduction system chambers (Terumo BCT®, Lakewood, Colo.) after thrombocytapheresis, in accordance with a protocol approved by the institutional review board of Roswell Park Cancer Institute. A density gradient centrifugation method using polysucrose-containing Lymphocyte Separation Medium (Mediatech®, Manassas, Va.) was used for PBMC isolation. MEPs were prepared from PBMCs using the well-established cold aggregation method with slight modification (Mentzer et al 1986). Briefly, PBMCs were subjected to gentle rocking at 4° C. for an hour and aggregated cells that sedimented through fetal bovine serum (FBS; VWR®, Radnor, Pa.) were collected as MEPs (monocyte-enriched PBMCs) after 0.5-3 hours for high monocyte enrichment (˜70% monocytes as assessed by immunofluorocytometry for CD14), or after 8-16 hours for mild enrichment (˜20%-40% monocytes). MEPs were cultured at a density of at least 20 million per ml in 1 or 2 ml per well of 6- or 12-well standard tissue culture plates under 5% CO2 in RPMI-1640 medium (Mediatech®) with 10% FBS, and 100 U per ml penicillin and 100 μg per ml streptomycin (Mediatech®). CD14 positive monocytes were separated in certain experiments from MEPs that were initially cultured for 1 or 2 days using magnetic beads and donut-shaped magnet (EasySep cell isolation kit purchased from STEMCELL Technologies).
For hypoxia, cells were cultured under 1% O2, 5% CO2 and 94% N2 in an XVIVO SYSTEM® (a cell culture system) (Biospherix®, Lacona, N.Y.). ‘Universal’ type I IFN, a hybrid of N-terminal IFNα-2 and C-terminal IFNα-1, produced in E. coli were obtained from PBL Assay Science® (Piscataway, N.J.), and respectively used at 300 U per ml. Unless noted otherwise, hypoxia and/or interferon treatments were for 24 hours. Differential viability of MEPs after 1-day culture in normoxia versus hypoxia was not observed as evaluated by Trypan blue stain.
SDHB c.136C>U site-specific RNA editing, catalyzed by APOBEC3A cytidine deaminase, was quantified by RT-PCR as described (Baysal et al 2013). Total RNA, genomic DNA and plasmid DNA were isolated using material and methods provided with TRIzol™, DNA Wizard Genomic DNA Purification Kit (Promega®), and Plasmid Kit (Qiagen®, Germantown, Md.), respectively. RNA/DNA was quantified by spectrophotometry on a Nanodrop™ 2000 instrument (Thermo Fisher®). Proteins were quantified using Bio-Rad® Dc™ assay with bovine serum albumin standards. Statistical tests were two-tailed and were performed using R 3.0, Excel™ 2010 (Microsoft®, Redmond, Wash.), or Prism™ 6.0 (GraphPad®, San Diego, Calif.) software.
Atpenin A5 is purchased from Cayman Chemical (CAS 119509-24-9), dissolved in DMSO and used in final concentrations of 1-3 μM in culture. DMOG (dimethyloxalylglycine; CAS 89464-63-1) and myxothiazol (CAS 76706-55-3) are purchased from Sigma-Aldrich, dissolved in DMSO and used in final concentrations of 1 mM and 1 μM, respectively.

HIF1α [2] = assay: HIF1α stabilization (immunoblotting) in 293T cells; conditions: for HIF1α stabilization in mild hypoxia: 6% O2
Protocol: (§1) FIG. 6. Inhibition of complex II reduces oxygen consumption and antagonizes HIF-1. […] DMSO indicates the untreated vehicle control. […] The oxygen levels are measured by a fluorescent dye, which is quenched by oxygen (i.e., more fluorescence, less oxygen). Results are averages from 3 donors' monocyte-enriched PBMCs with SEMs shown in dashed lines.
(§2) We used primary human monocytes and 293T HEK cells to investigate their response to hypoxia and to cell-permeable complex II inhibitors (atpenin A5, TTFA) using cell culture methods, high throughout RNA sequencing, qPCR, immunoblotting and oxygen consumption assays.

monocyte-enriched PBMCs = assay: Oxygen consumption assay (oxygen-quenched fluorescent dye) in monocyte-enriched PBMCs; conditions: averages from 3 donors' monocyte-enriched PBMCs
Protocol: as §1, §2

HIF1α [3] = assay: HIF1α stabilization (immunoblotting) in CD14 negative lymphocytes and CD14 positive monocytes; conditions: FIG. 5
Description: FIG. 5. HIF1α is stabilized in CD14 negative lymphocytes, but not in CD14 positive monocytes in hypoxia (H, 1% O2, day 1). […] CD14± cells are unsorted PBMCs.
as §2

[4] = system: hypoxia-related gene expression in monocytes; assay: RNA seq and RT-qPCR of hypoxic gene expression in monocytes
Description: FIG. 4. AtA5 treatment in normoxia induces hypoxic gene expression in monocytes.
as §2
On the contrary, AtA5 reduces cellular oxygen consumption in peripheral blood mononuclear cells and inhibits HIF-la stabilization in mildly hypoxic conditions in 293T cells (FIG. 6).

Compound	effect on hypoxia-induced RNA editing ([1]; MEPs)	induction of APOBEC3A-mediated RNA editing in normoxia ([1]; normoxia, MEPs)	HIF1α stabilization in mild hypoxia (HIF1α [2]; 293T cells, day 1)	oxygen consumption relative to control cells (monocyte-enriched PBMCs)	HIF1α stabilization in normoxia in lymphocytes and monocytes (HIF1α [3])	further results
CO/C(=C/C(N)=O)[C@H](C)[C@H](/C=C/c1csc(-c2csc([C@@H](C)/C=C/C=C/C(C)C)n2)n1)OC [myxothiazol]	inhibited hypoxia-induced RNA editing	did not induce RNA editing in normoxia	inhibits it both in mild and severe hypoxia	completely inhibit oxygen consumption	–	HIF1α stabilization in severe hypoxia (HIF1α [2]; 1% O2, 293T cells, day 1): inhibits it both in mild and severe hypoxia
antimycin A	–	–	–	completely inhibit oxygen consumption	–	–
COC(=O)CNC(=O)C(=O)OC [DMOG, dimethyloxalylglycine]	inhibited hypoxia-induced RNA editing	did not induce RNA editing in normoxia	–	–	stabilizes HIF1α in both lymphocytes and monocytes	–
O=C(CC(=O)C(F)(F)F)c1cccs1 [TTFA, thenoyltrifluoroacetone]	–	induces RNA editing in normoxia	–	–	–	–
COc1[nH]c(=O)c(C(=O)[C@@H](C)C[C@H](C)[C@@H](Cl)CCl)c(O)c1OC [atpenin A5]	without inhibiting the hypoxia-induced RNA editing	induced APOBEC3A-mediated RNA editing in normoxia	inhibits HIF1α stabilization in mild hypoxia	reduces oxygen consumption relative to control cells (blue), but does not abolish it	does not stabilize HIF1α in normoxia in lymphocytes or monocytes	cell population in which induced RNA editing occurs ([1]; CD14 positive and CD14 negative cells separated from MEPs after culture): induced RNA editing occurs in CD14+ monocytes; RNA editing levels induced in normoxia relative to hypoxic stimulation ([1]; normoxia versus hypoxia, FIG. 1): comparable to levels observed upon hypoxic stimulation; effect on RNA editing in combination with interferon ([1]; normoxia, MEPs, type I IFN 300 U per ml): synergistic effect with interferon-induced RNA editing levels; monocyte-enriched PBMCs from donors (biological replicates) with normoxic induction of RNA editing ([1]; normoxia, p=0.00013, two-sided Wilcoxon pairwise test): 19 of 19; effect on A3A-mediated RNA editing or transcript induction in hypoxic monocytes ([4]; hypoxic monocytes): does not inhibit A3A-mediated RNA editing or transcript induction in hypoxic monocytes; expression of hypoxia-related and pro-angiogenic genes (RT-qPCR) ([4]; normoxic treatment of monocytes): causes upregulation of many hypoxia-related and pro-angiogenic genes including VEGFA, CXCL8 (IL8) and CXCR4; transcriptome-scale changes (RNA seq and RNA editing analyses) ([4]; normoxic treatment of monocytes, FIG. 4): closely mimics the hypoxia effects in inducing transcriptome-scale changes; HIF-1α stabilization in normoxia in 293T cells (HIF1α [2]; normoxic treatment, 293T embryonic kidney cells, FIG. 6): does not stabilize HIF-la

From patent US11007182B2, “Use of atpenin to activate innate immunity” (Health Research, Inc., priority 2015, dated 2021)
